Reference: PubChem BioAssay AID2060357 (Molecular Pharmacology Branch, DTP, NCI, 2025)
Values joined by “and” are separate entries in the source; they are usually repeats but may differ in a detail not shown here. Identical values can stand only once.

System: 292921-168-R-J2-PDC spheroids with HUVEC/MSC, viability
Assay: Anticancer human tumor 292921-168-R-J2-PDC patient-derived pancreatic carcinoma cell line growth inhibition [TAK]
Settings: for viability, T/C: stronger effect = lower value
From the text: Combinatorial screen of targeted agents with TAK-243 and ipatasertib in multi-cell type tumor spheroids
A high-throughput screen of multi-cell type tumor spheroids was designed to identify active combinations of targeted small molecules and TAK-243 or ipatasertib. Complex spheroids include a stromal component modeled by human endothelial cells (HUVEC) and fibroblasts modeled by human mesenchymal stem cells (MSCs). The concentration ranges selected for each drug and investigational agent were based upon clinically achievable concentrations if the clinical Cmax of the agent was known.
Compounds. The drugs and investigational agents: TAK-243 (785004), ipatasertib (767898), everolimus (733504), selumetinib (741078), bortezomib (756655), trametinib (758246), ixazomib (758254), vemurafenib (761431), dabrafenib (764134), sapanisertib (764658), alpelisib (765974), and copanlisib (816437), were obtained from the National Cancer Institute (NCI) Developmental Therapeutics Program Chemical Repository. The FDA-approved anticancer drug set is available from the NCI Developmental Therapeutics Program. […] The stock solutions were prepared in dimethyl sulfoxide (DMSO, Sigma-Aldrich, St. Louis, MO, cat. D2650) at 800-fold the tested concentration and stored at -70 degrees C prior to their use. All drugs and investigational agents were tested over a range starting from a high concentration at or near the clinical Cmax and decreasing in half-log increments. If the clinical Cmax for an agent had not been determined, the highest concentration tested was 10 microM.
NCI60 Cell Culture. NCI60 cell lines were obtained from the NCI Developmental Therapeutics Program Tumor Repository. For each lot of cells, the Repository performed Applied Biosystems AmpFLSTR Identifiler testing with PCR amplification to confirm consistency with the published Identifier STR profile for each cell line. Cells were kept in continuous culture for no more than 20 passages. The optimal seeding densities for each of the cell lines at each time point assessed were determined prior to performing the concentration response studies. Briefly, the NCI60 human tumor lines were grown as monolayers in RPMI 1640 medium supplemented with 10% FBS and 2 mmol/L L-glutamine.
An additional 2 lines were from the NCI60 cell line panel including melanomas, MALME-3M and SK-MEL-2. Pooled donor human umbilical vein endothelial cells (HUVEC, Lonza, cat. CC-2519) and human mesenchymal stem cells (hMSC, Lonza, cat. PT-2501) were purchased from Lonza (Walkersville, MD).
PDMR cell lines were grown in complete medium (DC medium): Dulbecco's modified Eagle's medium (DMEM)/F12 supplemented with 5% fetal bovine serum (FBS), 2 mM L-glutamine, 100 U/mL penicillin and 100 µg/ml streptomycin, 0.4 µg/ml hydrocortisone, 10 ng/ml epidermal growth factor (EGF) recombinant human protein, 24 µg/mL adenine, and 0.1 mg/mL primocin. During culture from frozen stock vials, PDMR cells were cultured in the same medium containing 10 µM Y-27632 (see Table 3). The PDCs were cultured in complete DMEM/F12 media without 10 microM Y-27632 dihydrochloride for at least two passages prior to the screen. The pooled donor HUVEC and hMSC were cultured in endothelial cell growth medium 2 (PromoCell, Heidelberg, Germany, cat. C-22011) and mesenchymal stem cell growth medium 2 (PromoCell, cat. C-28009), respectively. For all experiments, HUVEC and hMSC were used at passages </=5.
For the pre-screen, cell seeding densities were determined from a titration spanning the range from 5,000 to 313 cells per well. The mct-spheroids including 60% malignant cells, 25% HUVEC and 15% MSC dispensed as a mixture into U-bottom Ultra-Low Attachment 384-well plates (Corning, NY)
High-throughput Drug Combination Screening.
Prior to their inoculation into 384-well plates, malignant cells, HUVEC, and hMSC were removed from T flasks using TrypLE express (Thermo Fisher Scientific, cat. 12605036) and harvested by centrifugation for 5 min at 233 x g. […]

[1] = curve of first compound, second compound 0.3 µM
[2] = curve of first compound, second compound 0.949 µM
[3] = curve of first compound, second compound 3 µM
[4] = curve of first compound, second compound 9.49 µM
[5] = curve of first compound, second compound 30 µM
[6] = second compound 0.3 µM, first compound 0.000316 µM
[7] = second compound 0.3 µM, first compound 0.001 µM
[8] = second compound 0.3 µM, first compound 0.00316 µM
[9] = second compound 0.3 µM, first compound 0.01 µM
[10] = second compound 0.949 µM, first compound 0.000316 µM
[11] = second compound 0.949 µM, first compound 0.001 µM
[12] = second compound 0.949 µM, first compound 0.00316 µM
[13] = second compound 0.949 µM, first compound 0.01 µM
[14] = second compound 3 µM, first compound 0.000316 µM
[15] = second compound 3 µM, first compound 0.001 µM
[16] = second compound 3 µM, first compound 0.00316 µM
[17] = second compound 3 µM, first compound 0.01 µM
[18] = second compound 9.49 µM, first compound 0.000316 µM
[19] = second compound 9.49 µM, first compound 0.001 µM
[20] = second compound 9.49 µM, first compound 0.00316 µM
[21] = second compound 9.49 µM, first compound 0.01 µM
[22] = second compound 30 µM, first compound 0.000316 µM
[23] = second compound 30 µM, first compound 0.001 µM
[24] = second compound 30 µM, first compound 0.00316 µM
[25] = second compound 30 µM, first compound 0.01 µM
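Note: spheroids exposed to drugs for seven days before readout.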

Cn1cnc2c(F)c(Nc3ccc(Br)cc3Cl)c(C(=O)NOCCO)cc21 + CC(C)NCC(C(=O)N1CCN(c2ncnc3c2C(C)CC3O)CC1)c1ccc(Cl)cc1
IC50 [1]: < 9.49 nM
IC50 [2]: < 9.49 nM
IC50 [3]: < 9.49 nM
IC50 [4]: < 9.49 nM
IC50 [5]: < 9.49 nM
viability, T/C (second compound 0.3 µM, first compound 0.00949 µM): 49.9%
viability, T/C (second compound 0.3 µM, first compound 0.03 µM): 36.5%
viability, T/C (second compound 0.3 µM, first compound 0.0949 µM): 30.9%
viability, T/C (second compound 0.3 µM, first compound 0.3 µM): 26.8%
viability, T/C (second compound 0.3 µM, first compound 0.949 µM): 21.4%
viability, T/C (second compound 0.3 µM, first compound 3 µM): 13.1%
viability, T/C (second compound 0.949 µM, first compound 0.00949 µM): 45.3%
viability, T/C (second compound 0.949 µM, first compound 0.03 µM): 34.7%
viability, T/C (second compound 0.949 µM, first compound 0.0949 µM): 30.9%
viability, T/C (second compound 0.949 µM, first compound 0.3 µM): 28.1%
viability, T/C (second compound 0.949 µM, first compound 0.949 µM): 21.5%
viability, T/C (second compound 0.949 µM, first compound 3 µM): 13%
viability, T/C (second compound 3 µM, first compound 0.00949 µM): 39.5%
viability, T/C (second compound 3 µM, first compound 0.03 µM): 30.3%
viability, T/C (second compound 3 µM, first compound 0.0949 µM): 27.6%
viability, T/C (second compound 3 µM, first compound 0.3 µM): 24.1%
viability, T/C (second compound 3 µM, first compound 0.949 µM): 17.3%
viability, T/C (second compound 3 µM, first compound 3 µM): 11.8%
viability, T/C (second compound 9.49 µM, first compound 0.00949 µM): 32.2%
viability, T/C (second compound 9.49 µM, first compound 0.03 µM): 24.5%
viability, T/C (second compound 9.49 µM, first compound 0.0949 µM): 22.6%
viability, T/C (second compound 9.49 µM, first compound 0.3 µM): 20.6%
viability, T/C (second compound 9.49 µM, first compound 0.949 µM): 15.6%
viability, T/C (second compound 9.49 µM, first compound 3 µM): 10.9%
viability, T/C (second compound 30 µM, first compound 0.00949 µM): 25.3%
viability, T/C (second compound 30 µM, first compound 0.03 µM): 21.2%
viability, T/C (second compound 30 µM, first compound 0.0949 µM): 18.4%
viability, T/C (second compound 30 µM, first compound 0.3 µM): 17.5%
viability, T/C (second compound 30 µM, first compound 0.949 µM): 13.8%
viability, T/C (second compound 30 µM, first compound 3 µM): 8.92%

COc1c(OCCCN2CCOCC2)ccc2c3n(c(=NC(=O)c4cnc(N)nc4)nc12)CCN3
viability, T/C (compound 0.00316 µM): 74.5% and 83.2%
viability, T/C (compound 0.01 µM): 43.7% and 51.3%
viability, T/C (compound 0.0316 µM): 28.2% and 30.1%
viability, T/C (compound 0.1 µM): 14.5% and 16.6%
viability, T/C (compound 0.316 µM): 10.4% and 12.4%
viability, T/C (compound 1 µM): 8.83% and 11.2%
IC50 (curve of compound): 8.15 nM and 10.9 nM

COC1CC2CCC(C)C(O)(O2)C(=O)C(=O)N2CCCCC2C(=O)OC(C(C)CC2CCC(OCCO)C(OC)C2)CC(=O)C(C)C=C(C)C(O)C(OC)C(=O)C(C)CC(C)C=CC=CC=C1C (configuration not stated) + CC(C)NCC(C(=O)N1CCN(c2ncnc3c2C(C)CC3O)CC1)c1ccc(Cl)cc1
IC50 [1]: 5.01 nM
IC50 [2]: 4.77 nM
IC50 [3]: 1.41 nM
IC50 [4]: < 0.316 nM
IC50 [5]: < 0.316 nM
viability, T/C [6]: 64.3%
viability, T/C [7]: 56.9%
viability, T/C [8]: 49.4%
viability, T/C [9]: 50.6%
viability, T/C (second compound 0.3 µM, first compound 0.0316 µM): 45.3%
viability, T/C (second compound 0.3 µM, first compound 0.1 µM): 46.1%
viability, T/C [10]: 65.7%
viability, T/C [11]: 59.9%
viability, T/C [12]: 50.2%
viability, T/C [13]: 46.6%
viability, T/C (second compound 0.949 µM, first compound 0.0316 µM): 44.9%
viability, T/C (second compound 0.949 µM, first compound 0.1 µM): 45.2%
viability, T/C [14]: 60%
viability, T/C [15]: 53.3%
viability, T/C [16]: 45.1%
viability, T/C [17]: 42.4%
viability, T/C (second compound 3 µM, first compound 0.0316 µM): 43.8%
viability, T/C (second compound 3 µM, first compound 0.1 µM): 41.6%
viability, T/C [18]: 47.9%
viability, T/C [19]: 39.8%
viability, T/C [20]: 35.7%
viability, T/C [21]: 33.2%
viability, T/C (second compound 9.49 µM, first compound 0.0316 µM): 32.7%
viability, T/C (second compound 9.49 µM, first compound 0.1 µM): 32.9%
viability, T/C [22]: 33.4%
viability, T/C [23]: 30.6%
viability, T/C [24]: 29%
viability, T/C [25]: 26.3%
viability, T/C (second compound 30 µM, first compound 0.0316 µM): 26.2%
viability, T/C (second compound 30 µM, first compound 0.1 µM): 24.3%

CC(C)CC(NC(=O)C(Cc1ccccc1)NC(=O)c1cnccn1)B(O)O (configuration not stated) + CC(C)NCC(C(=O)N1CCN(c2ncnc3c2C(C)CC3O)CC1)c1ccc(Cl)cc1
IC50 [1]: 4.58 nM
IC50 [2]: 4.11 nM
IC50 [3]: 4.07 nM
IC50 [4]: 3.99 nM
IC50 [5]: < 0.0316 nM
viability, T/C (second compound 0.3 µM, first compound 31.6 pM): 83.7%
viability, T/C (second compound 0.3 µM, first compound 0.0001 µM): 86.5%
viability, T/C [6]: 88.6%
viability, T/C [7]: 89.3%
viability, T/C [8]: 69%
viability, T/C [9]: 9.99%
viability, T/C (second compound 0.949 µM, first compound 31.6 pM): 80.2%
viability, T/C (second compound 0.949 µM, first compound 0.0001 µM): 81.7%
viability, T/C [10]: 83.5%
viability, T/C [11]: 80.9%
viability, T/C [12]: 62.9%
viability, T/C [13]: 6.56%
viability, T/C (second compound 3 µM, first compound 31.6 pM): 73.9%
viability, T/C (second compound 3 µM, first compound 0.0001 µM): 76.1%
viability, T/C [14]: 72.6%
viability, T/C [15]: 78.6%
viability, T/C [16]: 62.1%
viability, T/C [17]: 6.46%
viability, T/C (second compound 9.49 µM, first compound 31.6 pM): 64.1%
viability, T/C (second compound 9.49 µM, first compound 0.0001 µM): 63%
viability, T/C [18]: 58.7%
viability, T/C [19]: 58.5%
viability, T/C [20]: 62.8%
viability, T/C [21]: 4.62%
viability, T/C (second compound 30 µM, first compound 31.6 pM): 41.7%
viability, T/C (second compound 30 µM, first compound 0.0001 µM): 40.5%
viability, T/C [22]: 41.3%
viability, T/C [23]: 42.8%
viability, T/C [24]: 38.7%
viability, T/C [25]: 6.44%
